Test results as given in paper PMC8119466, “A screen of FDA-approved drugs identifies inhibitors of protein tyrosine phosphatase 4A3 (PTP4A3 or PRL-3)” (Scientific Reports, 2021).
Structures can show the parent of a compound that is named as a salt. Where two headings read alike, the source gives them in different places.

How the values were obtained:
Format in all cases: biochemical
recombinant PRL-3 = molecular target: T1, recombinant PRL-3 (Homo sapiens, UniProt O75365); assay: In vitro phosphatase assay (DiFMUP hydrolysis), PRL-3; also: test concentration or dose not given here
T1 construct: 6xHis (N, cleaved yes); made in house; host or cells: E. coli One Shot BL21 Star
T1 sequence (O75365 whole entry): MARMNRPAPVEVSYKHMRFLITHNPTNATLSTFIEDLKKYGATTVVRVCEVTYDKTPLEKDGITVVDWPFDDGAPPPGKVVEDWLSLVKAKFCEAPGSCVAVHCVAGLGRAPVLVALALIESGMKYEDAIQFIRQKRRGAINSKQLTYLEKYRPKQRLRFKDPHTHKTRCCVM

recombinant PRL-2 = molecular target: T2, recombinant PRL-2 (Homo sapiens, UniProt Q12974); assay: In vitro phosphatase assay (DiFMUP hydrolysis), PRL-2;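 also: PRL-2 activity read as DiFMUP hydrolysis after 20 min at room temperature with drug, enzyme first pre-reduced at 4 °C for 20 min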
T2 construct: 6xHis (N, cleaved yes); made in house; host or cells: E. coli One Shot BL21 Star
T2 sequence (Q12974 1-167): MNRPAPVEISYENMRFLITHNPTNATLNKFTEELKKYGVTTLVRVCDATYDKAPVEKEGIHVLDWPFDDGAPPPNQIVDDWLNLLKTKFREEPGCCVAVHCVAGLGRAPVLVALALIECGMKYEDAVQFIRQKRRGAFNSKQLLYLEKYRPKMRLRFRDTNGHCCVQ

recombinant PRL-1 = molecular target: T3, recombinant PRL-1 (Homo sapiens, UniProt Q93096); assay: In vitro phosphatase assay (DiFMUP hydrolysis), PRL-1; also: test concentration or dose not given here
T3 construct: 6xHis (N, cleaved yes); made in house; host or cells: E. coli One Shot BL21 Star
T3 sequence (Q93096 1-173): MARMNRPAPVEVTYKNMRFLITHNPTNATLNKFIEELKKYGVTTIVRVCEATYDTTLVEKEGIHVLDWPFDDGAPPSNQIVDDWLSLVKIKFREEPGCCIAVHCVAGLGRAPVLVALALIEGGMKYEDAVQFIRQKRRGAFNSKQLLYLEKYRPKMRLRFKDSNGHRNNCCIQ

[1] = FDA-approved drug screen, activity compared to DMSO
[2] = FDA-approved drug screen, compared to DMSO

Compound	% Phosphatase Activity (compared to DMSO) PRL-3 (recombinant PRL-3; [2]) [%]	% Phosphatase Activity (compared to DMSO) PRL-2 (recombinant PRL-2; [2]) [%]	% Phosphatase Activity (compared to DMSO) PRL-1 (recombinant PRL-1; [2]) [%]	also measured
CCCc1nc(C)c2c(=O)[nH]c(-c3cc(S(=O)(=O)N4CCN(CC)CC4)ccc3OCC)nn12.Cl.O.O.O [Vardenafil HCl Trihydrate]				% Phosphatase Activity (compared to DMSO) PRL-3 (recombinant PRL-3; [1]): 84%; % Phosphatase Activity (compared to DMSO) PRL-2 (recombinant PRL-2; [1]): 98%; % Phosphatase Activity (compared to DMSO) PRL-1 (recombinant PRL-1; [1]): 98%
O=C(CCCN1CC=C(n2c(=O)[nH]c3ccccc32)CC1)c1ccc(F)cc1 [Droperidol]	71	106	85	
O=C(O)c1cc(=O)c2ccccc2o1 [Chromocarb]	85	102	95	
CNC[C@H](O)[C@@H](O)[C@H](O)[C@H](O)CO.CNC[C@H](O)[C@@H](O)[C@H](O)[C@H](O)CO.C[C@@H](O[C@H]1OCCN(Cc2nn(P(=O)(O)O)c(=O)[nH]2)[C@H]1c1ccc(F)cc1)c1cc(C(F)(F)F)cc(C(F)(F)F)c1 [Fosaprepitant dimeglumine salt]	85	94	87	
N=C(N)NC(=O)c1nc(Cl)c(N)nc1N [Amiloride hydrochloride dihydrate]	220	219	254	
COc1cc(Nc2ncc3c(n2)-c2ccc(Cl)cc2C(c2c(F)cccc2OC)=NC3)ccc1C(=O)O [Alisertib (MLN8237)]	81	96	85	
O=C1CN2Cc3c(ccc(Cl)c3Cl)N=C2N1 [Anagrelide HCl]	80	91	93	
[O-][n+]1cccc(CO)c1 [Mepiroxol]	87	112	100	
Cc1cc(Nc2cc(N3CCN(C)CC3)nc(Sc3ccc(NC(=O)C4CC4)cc3)n2)n[nH]1 [VX-680 (Tozasertib, MK-0457)]				% Phosphatase Activity (compared to DMSO) PRL-3 (recombinant PRL-3; [1]): 82%; % Phosphatase Activity (compared to DMSO) PRL-2 (recombinant PRL-2; [1]): 87%; % Phosphatase Activity (compared to DMSO) PRL-1 (recombinant PRL-1; [1]): 89%
CCn1c(=O)c(-c2cc[nH]n2)cc2c(C)nc(N)nc21 [Voxtalisib (XL765, SAR245409)]				% Phosphatase Activity (compared to DMSO) PRL-3 (recombinant PRL-3; [1]): 4492%; % Phosphatase Activity (compared to DMSO) PRL-2 (recombinant PRL-2; [1]): 5267%; % Phosphatase Activity (compared to DMSO) PRL-1 (recombinant PRL-1; [1]): 7254%
CC(C(=O)O)c1cccc(C(=O)c2ccccc2)c1 (stereo not drawn) [Ketoprofen]	87	95	105	
CCCCCC(=O)O[C@]1(C(C)=O)CC[C@H]2[C@@H]3CCC4=CC(=O)CC[C@]4(C)[C@H]3CC[C@@]21C [Hydroxyprogesterone caproate]	73	84	91	
CC[C@H]1OC(=O)[C@H](C)[C@@H](O[C@H]2C[C@@](C)(OC)[C@@H](O)[C@H](C)O2)[C@H](C)[C@@H](O[C@@H]2O[C@H](C)C[C@H](N(C)C)[C@H]2O)[C@](C)(O)C[C@@H](C)CN(C)[C@H](C)[C@@H](O)[C@]1(C)O [Azithromycin]	101	94	94	
COC(=O)N[C@H](C(=O)N1CC2(CC2)C[C@H]1c1nc(-c2ccc3c(c2)C(F)(F)c2cc(-c4ccc5[nH]c([C@@H]6[C@H]7CC[C@H](C7)N6C(=O)[C@@H](NC(=O)OC)C(C)C)nc5c4)ccc2-3)c[nH]1)C(C)C [Ledipasvir (GS5885)]	144	115	174	
CC[C@H]1CN2CC[C@H]1C[C@@H]2[C@@H](O)c1ccnc2ccc(OC)cc12 [Hydroquinidine]	92	120	105	
CN1C(C(=O)Nc2ccccn2)=C(O)c2sccc2S1(=O)=O [Tenoxicam]				% Phosphatase Activity (compared to DMSO) PRL-3 (recombinant PRL-3; [1]): 71%; % Phosphatase Activity (compared to DMSO) PRL-2 (recombinant PRL-2; [1]): 75%; % Phosphatase Activity (compared to DMSO) PRL-1 (recombinant PRL-1; [1]): 92%
O=C(C[S+]([O-])Cc1ccco1)NC/C=C\COc1cc(CN2CCCCC2)ccn1 (stereo not drawn) [Lafutidine]	83	115	114	
O=C(O)c1ccc(-n2nc(-c3ccccc3O)nc2-c2ccccc2O)cc1 [Deferasirox]	81	104	108	
NCCc1ccc(O)c(O)c1 [Dopamine HCl]				% Phosphatase Activity (compared to DMSO) PRL-3 (recombinant PRL-3): 82%; % Phosphatase Activity (compared to DMSO) PRL-2 (recombinant PRL-2): 119%; % Phosphatase Activity (compared to DMSO) PRL-1 (recombinant PRL-1): 125%

Compound	% Phosphatase Activity (compared to DMSO) PRL-3 (recombinant PRL-3; [2]) [%]	% Phosphatase Activity (compared to DMSO) PRL-2 (recombinant PRL-2; [2]) [%]	% Phosphatase Activity (compared to DMSO) PRL-1 (recombinant PRL-1; [2]) [%]	also measured
O=C(O)c1cc(/N=N/c2ccc(S(=O)(=O)Nc3ccccn3)cc2)ccc1O [Sulfasalazine]				% Phosphatase Activity (compared to DMSO) PRL-3 (recombinant PRL-3; [1]): 59%; % Phosphatase Activity (compared to DMSO) PRL-2 (recombinant PRL-2; [1]): 50%; % Phosphatase Activity (compared to DMSO) PRL-1 (recombinant PRL-1; [1]): 67%
CCOc1ccc2nc3cc(N)ccc3c(N)c2c1 [Ethacridine lactate monohydrate]	201	215	246	
OCc1ccccc1 [Benzyl alcohol]	82	91	94	
CNC(=O)c1cc(Oc2ccc(NC(=O)Nc3ccc(Cl)c(C(F)(F)F)c3)c(F)c2)ccn1 [Regorafenib (BAY 73-4506)]	79	88	86	
CC[C@H]1OC(=O)[C@H](C)[C@@H](O[C@H]2C[C@@](C)(OC)[C@@H](O)[C@H](C)O2)[C@H](C)[C@@H](O[C@@H]2O[C@H](C)C[C@H](N(C)C)[C@H]2O)[C@](C)(O)C[C@@H](C)/C(=N\OCOCCOC)[C@H](C)[C@@H](O)[C@]1(C)O [Roxithromycin]	70	105	93	
O=C(O)c1cc(O)c(O)c(O)c1 [Gallic acid]	80	76	100	
CC(=O)OCC(=O)[C@@]12OC(C)(C)O[C@@H]1C[C@H]1[C@@H]3C[C@H](F)C4=CC(=O)C=C[C@]4(C)[C@@]3(F)[C@@H](O)C[C@@]12C [Fluocinonide]	89	92	91	
O=c1[nH]c(=O)c2ccccc2o1 [Carsalam]	80	95	96	
CN(C)CCc1c[nH]c2ccc(C[C@H]3COC(=O)N3)cc12 [Zolmitriptan]				% Phosphatase Activity (compared to DMSO) PRL-3 (recombinant PRL-3; [1]): 80%; % Phosphatase Activity (compared to DMSO) PRL-2 (recombinant PRL-2; [1]): 86%; % Phosphatase Activity (compared to DMSO) PRL-1 (recombinant PRL-1; [1]): 111%
CC(C)NCC(O)c1ccccc1Cl.Cl (stereo not drawn) [Clorprenaline HCl]	75	102	91	
CC(C)NCC(O)COc1ccc(CCOCC2CC2)cc1 (stereo not drawn) [Betaxolol]				% Phosphatase Activity (compared to DMSO) PRL-3 (recombinant PRL-3): 80%; % Phosphatase Activity (compared to DMSO) PRL-2 (recombinant PRL-2): 124%; % Phosphatase Activity (compared to DMSO) PRL-1 (recombinant PRL-1): 109%
CCCc1nn(C)c2c(=O)[nH]c(-c3cc(S(=O)(=O)N4CCN(C)CC4)ccc3OCC)nc12 [Sildenafil Citrate]				% Phosphatase Activity (compared to DMSO) PRL-3 (recombinant PRL-3; [1]): 84%; % Phosphatase Activity (compared to DMSO) PRL-2 (recombinant PRL-2; [1]): 88%; % Phosphatase Activity (compared to DMSO) PRL-1 (recombinant PRL-1; [1]): 100%
N=C(N)c1ccc2cc(OC(=O)c3ccc(N=C(N)N)cc3)ccc2c1 [Nafamostat Mesylate]	67	264	204	
OC(CCN1CCCCC1)(c1ccccc1)C1CCCCC1 (stereo not drawn) [Trihexyphenidyl hydrochloride]				% Phosphatase Activity (compared to DMSO) PRL-3 (recombinant PRL-3): 106%; % Phosphatase Activity (compared to DMSO) PRL-2 (recombinant PRL-2): 98%; % Phosphatase Activity (compared to DMSO) PRL-1 (recombinant PRL-1): 100%
N#Cc1ccccc1-c1cc(-c2ccccn2)cn(-c2ccccc2)c1=O [Perampanel]	451	376	488	
CN1C(C(=O)Nc2ccccn2)=C(O)c2sc(Cl)cc2S1(=O)=O [Lornoxicam]	81	84	73	
Cc1c(-c2ccccc2)oc2c(C(=O)OCCN3CCCCC3)cccc2c1=O [Flavoxate HCl]	113	109	103	
CCN(C)C(=O)Oc1cccc([C@H](C)N(C)C)c1 [Rivastigmine]	92	94	98	
COc1ccc(CN=c2[nH]c(N3CCC[C@H]3CO)ncc2C(=O)NCc2ncccn2)cc1Cl [Avanafil]	97	112	98	
